In US8134015B2, “Compound inhibiting in vivo phosphorous transport and medicine containing the same” (Kyowa Hakko Kirin Co., Ltd., priority 2003, dated 2012):

Target: T1, rat NaPi-2b (Rattus norvegicus, UniProt Q9JJ09)
T1 construct: expressed in transfected cells; host or cells: Xenopus oocytes injected with cRNA
T1 sequence (Q9JJ09 1-695): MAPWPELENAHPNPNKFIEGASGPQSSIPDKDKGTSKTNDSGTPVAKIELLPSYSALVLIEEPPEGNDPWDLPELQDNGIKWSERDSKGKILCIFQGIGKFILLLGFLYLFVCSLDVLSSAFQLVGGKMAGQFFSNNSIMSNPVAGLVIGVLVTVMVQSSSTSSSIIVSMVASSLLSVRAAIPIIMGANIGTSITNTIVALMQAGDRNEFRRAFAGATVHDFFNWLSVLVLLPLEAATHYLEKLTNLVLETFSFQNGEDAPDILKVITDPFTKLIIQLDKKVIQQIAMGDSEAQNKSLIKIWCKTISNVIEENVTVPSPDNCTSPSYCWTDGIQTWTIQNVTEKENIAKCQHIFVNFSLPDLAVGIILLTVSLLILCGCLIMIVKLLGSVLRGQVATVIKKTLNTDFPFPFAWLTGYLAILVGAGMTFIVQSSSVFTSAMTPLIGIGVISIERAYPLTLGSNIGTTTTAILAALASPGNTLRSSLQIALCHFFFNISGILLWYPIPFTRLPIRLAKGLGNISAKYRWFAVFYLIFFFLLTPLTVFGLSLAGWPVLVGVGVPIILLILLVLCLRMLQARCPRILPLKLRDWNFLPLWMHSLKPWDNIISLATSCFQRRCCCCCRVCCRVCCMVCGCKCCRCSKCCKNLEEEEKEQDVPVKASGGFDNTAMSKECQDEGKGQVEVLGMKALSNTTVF
Test: Sodium-dependent phosphate uptake of Xenopus oocytes which expressed NaPi-2b (32P)
Type: cell-based
Conditions: Xenopus oocytes expressing rat NaPi-2b, 32P radioactive phosphorus; read-out: IC50 (phosphate uptake inhibitory activity)
Summary of the method: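 Oocytes injected with rat NaPi-2b cRNA, cultured 2 d, then 32P uptake measured with compound. Values: % inhibition at 300 and 100 μM, both from one inhibition curve.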

| IC50 [µM] | Compound |
| --- | --- |
| 0.64 | COc1ccc(C(=O)Nc2ccccc2C(=O)N/N=C/c2ccc(OC)c(Br)c2)cc1 [Compound 100, N-[2-(3-Bromo-4-methoxy-benzylidene-hydrazinocarbonyl)-phenyl]-4-methoxy-benzamide] |
| 0.75 | COc1ccc(/C=N/NC(=O)c2ccccc2NC(=O)c2cccc(F)c2)cc1Br [Compound 101, N-[2-(3-Bromo-4-methoxy-benzylidene-hydrazinocarbonyl)-phenyl]-3-fluoro-benzamide] |
| 5.58 | COc1ccc(/C=N/NC(=O)c2ccccc2NC(=O)c2ccc(F)cc2)cc1Br [Compound 102, N-[2-(3-Bromo-4-methoxy-benzylidene-hydrazinocarbonyl)-phenyl]-4-fluoro-benzamide] |
| 5.73 | COc1ccc(C(=O)Nc2ccccc2C(=O)N/N=C/c2cccc([N+](=O)[O-])c2)cc1OC [Compound 103, 3,4-Dimethoxy-N-[2-(3-nitro-benzylidene-hydrazinocarbonyl)-phenyl]-benzamide] |
| 11.3 | COc1ccc(C(=O)Nc2ccccc2C(=O)N/N=C/c2ccc(N(C)C)cc2)cc1OC [Compound 104, N-[2-(4-Dimethylamino-benzylidene-hydrazinocarbonyl)-phenyl]-3,4-dimethoxy-benzamide] |
| 7.29 | O=C(Nc1ccc(Br)cc1C(=O)N/N=C/c1cccc(F)c1)c1ccc(F)cc1 [Compound 105, N-[4-Bromo-2-(3-fluoro-benzylidene-hydrazinocarbonyl)-phenyl]-4-fluoro-benzamide] |
| 5.11 | O=C(Nc1ccc(Br)cc1C(=O)N/N=C/c1ccc(F)cc1)c1ccc(F)cc1 [Compound 106, N-[4-Bromo-2-(4-fluoro-benzylidene-hydrazinocarbonyl)-phenyl]-4-fluoro-benzamide] |
| 1.08 | O=C(Nc1ccc(Br)cc1C(=O)N/N=C/c1cccc(Cl)c1)c1ccc(F)cc1 [Compound 107, N-[4-Bromo-2-(3-chloro-benzylidene-hydrazinocarbonyl)-phenyl]-4-fluoro-benzamide] |
| 3.83 | O=C(Nc1ccc(Br)cc1C(=O)N/N=C/c1ccc(Cl)cc1)c1ccc(F)cc1 [Compound 108, N-[4-Bromo-2-(4-chloro-benzylidene-hydrazinocarbonyl)-phenyl]-4-fluoro-benzamide] |
| 6.18 | O=C(Nc1ccc(Br)cc1C(=O)N/N=C/c1cccc(O)c1)c1ccc(F)cc1 [Compound 109, N-[4-Bromo-2-(3-hydroxy-benzylidene-hydrazinocarbonyl)-phenyl]-4-fluoro-benzamide] |
| 7.7 | COc1ccc(C(=O)Nc2ccc(Br)cc2C(=O)N/N=C/c2cccnc2)cc1OC [Compound 110, N-[4-Bromo-2-(pyridin-3-ylmethylene-hydrazinocarbonyl)-phenyl]-3,4-dimethoxy-benzamide] |
| 9.12 | COc1ccc(C(=O)Nc2ccc(Cl)cc2C(=O)N/N=C/c2cccnc2)cc1OC [Compound 111, N-[4-Chloro-2-(pyridin-3-ylmethylene-hydrazinocarbonyl)-phenyl]-3,4-dimethoxy-benzamide] |
| 42 | COc1ccc(C(=O)Nc2ccccc2C(=O)N/N=C/c2cccnc2)cc1 [Compound 112, 4-Methoxy-N-[2-(pyridin-3-ylmethylene-hydrazinocarbonyl)-phenyl]-benzamide] |
| 17.9 | O=C(Nc1ccccc1C(=O)N/N=C/c1cccnc1)c1ccc(F)cc1 [Compound 113, 4-Fluoro-N-[2-(pyridin-3-ylmethylene-hydrazinocarbonyl)-phenyl]-benzamide] |
| 2.55 | COc1cc(OC)cc(C(=O)Nc2ccc(Br)cc2C(=O)N/N=C/c2cccc(F)c2)c1 [Compound 114, N-[4-Bromo-2-(3-fluoro-benzylidene-hydrazinocarbonyl)-phenyl]-3,5-dimethoxy-benzamide] |
| 5.48 | COc1cc(OC)cc(C(=O)Nc2ccc(Br)cc2C(=O)N/N=C/c2ccc(F)cc2)c1 [Compound 115, N-[4-Bromo-2-(4-fluoro-benzylidene-hydrazinocarbonyl)-phenyl]-3,5-dimethoxy-benzamide] |
| 7.01 | COc1cc(OC)cc(C(=O)Nc2ccc(Br)cc2C(=O)N/N=C/c2cccc(Cl)c2)c1 [Compound 116, N-[4-Bromo-2-(3-chloro-benzylidene-hydrazinocarbonyl)-phenyl]-3,5-dimethoxy-benzamide] |
| 0.58 | COc1cc(OC)cc(C(=O)Nc2ccc(Br)cc2C(=O)N/N=C/c2ccc(Cl)cc2)c1 [Compound 117, N-[4-Bromo-2-(4-chloro-benzylidene-hydrazinocarbonyl)-phenyl]-3,5-dimethoxy-benzamide] |
| 6.07 | COc1cc(OC)cc(C(=O)Nc2ccc(Br)cc2C(=O)NN=Cc2cccc(C)c2)c1 [Compound 118, N-[4-Bromo-2-(3-methyl-benzylidene-hydrazinocarbonyl)-phenyl]-3,5-dimethoxy-benzamide] |
| 0.74 | COc1cc(OC)cc(C(=O)Nc2ccc(Br)cc2C(=O)N/N=C/c2ccc(C)cc2)c1 [Compound 119, N-[4-Bromo-2-(4-methyl-benzylidene-hydrazinocarbonyl)-phenyl]-3,5-dimethoxy-benzamide] |
| 2.55 | O=C(Nc1ccccc1C(=O)N/N=C/c1cccc(F)c1)c1cccc(OC(F)(F)F)c1 [Compound 120] |
| 4.06 | O=C(Nc1ccccc1C(=O)N/N=C/c1ccc(F)cc1)c1cccc(OC(F)(F)F)c1 [Compound 121] |
| < 3 | O=C(Nc1ccccc1C(=O)N/N=C/c1cccc(Cl)c1)c1cccc(OC(F)(F)F)c1 [Compound 122] |
| 3.77 | O=C(Nc1ccccc1C(=O)N/N=C/c1ccc(Cl)cc1)c1cccc(OC(F)(F)F)c1 [Compound 123] |
| 3.15 | Cc1ccc(/C=N/NC(=O)c2ccccc2NC(=O)c2cccc(OC(F)(F)F)c2)cc1 [Compound 124] |
| 136 | COc1ccc(C(=O)Nc2ccc(OCCCN(C)C)cc2C(=O)N/N=C/c2ccc(F)cc2)cc1OC [Compound 125, N-[4-(3-Dimethylamino-propoxy)-2-(4-fluoro-benzylidene-hydrazinocarbonyl)-phenyl]-3,4-dimethoxy-benzamide] |
| 6.43 | COc1ccc(/C=N/NC(=O)c2cc(Cl)ccc2NC(=O)c2ccc(OC)c(OC)c2)cc1OC [Compound 126, N-[4-Chloro-2-(3,4-dimethoxy-benzylidene-hydrazinocarbonyl)-phenyl]-3,4-dimethoxy-benzamide] |
| 11.6 | COc1ccc(/C=N/NC(=O)c2cc(Br)ccc2NC(=O)c2ccc(OC)c(OC)c2)cc1OC [Compound 127, N-[4-Bromo-2-(3,4-dimethoxy-benzylidene-hydrazinocarbonyl)-phenyl]-3,4-dimethoxy-benzamide] |
| 11.6 | COc1cc(OC)cc(C(=O)Nc2ccc(Br)cc2C(=O)N/N=C/c2ccc(OC)c(OC)c2)c1 [Compound 128, N-[4-Bromo-2-(3,4-dimethoxy-benzylidene-hydrazinocarbonyl)-phenyl]-3,5-dimethoxy-benzamide] |
| 13.7 | O=C(Nc1ccccc1C(=O)N/N=C/c1cccc(F)c1)c1cccnc1 [Compound 129, N-[2-(3-Fluoro-benzylidene-hydrazinocarbonyl)-phenyl]-nicotinamide] |

Same assay, conditions: phosphate uptake, oocytes expressing rat NaPi-2b; 300 μM, determined from inhibition curve

| inhibition at 300 µM [%] | Compound |
| --- | --- |
| 32.4 | Cc1cccc(/C=N/NC(=O)c2ccccc2NC(=O)c2cccnc2)c1 [Compound 131, N-[2-(3-Methyl-benzylidene-hydrazinocarbonyl)-phenyl]-nicotinamide] |
